Laboratory results reported in US5408036A, “Isolated metallopolypeptide: compositions and synthetic methods” (The Scripps Research Institute, priority 1993, dated 1995).
Values joined by “and” are separate entries in the source; they are usually repeats but may differ in a detail not shown here. Identical values can stand only once. One block for each compound: values may come before it. Residues, ends and D or L forms follow the SMILES beside them. No end group written: not given here. *: point of attachment. 5‑carboxyl‑2,2'‑bipyridine = O=C(c1ccc(-c2ccccn2)nc1)*

Assays:
[1] = Circular dichroism (CD) to measure degree of secondary structure (alpha-helicity); type: physicochemical; details: for helicity / θ: using Cu(II)
Description: ID No's. 3 and 4. The analysis was performed as described above.
Proton nuclear magnetic resonance spectra were recorded at 300MHz on Bruker AM300 spectrometer and are reported in parts per million (ppm) downfield from Me4 Si. Ultraviolet-visible spectra were recorded on Aviv Associates 14DS and Milton Roy Spectronic 3000 Array spectrometers. Circular dichroism measurements were made on Aviv Associates 62DS spectrometer equipped with a thermostable cell holder using 10, 1, and 0.1 mm Hellma quartz cells. All reported CD data have an uncertainty of ±2-5%. All ellipticity measurements are expressed as mean residue ellipticity, [θ], having the units deg·cm^2 ·dmol-^1.

[2] = CD titration: dependence of [θ]222 on free metal ion concentration, CdCl2; type: binding; details: CdCl2, pH 8.0; peptide 5.9×10^-6M in 10 mM sodium borate, 0.5 mM mercaptoethanol, 21° C.
Source text: (§1) FIG. 4 illustrates the dependence of mean residue molar ellipticity at 222 nm ([.THETA.]222 ×10^-3) of peptides SEQ ID NO's:2 AND 3 on the concentration of free metal ions when measured as described in Example 3A(2).
(§2) The peptide metal salt solution admixtures prepared as in Example 2A were subjected to CD analyses according to published procedures to measure the degree of stability induced by metal ion complexation with peptides. Greenfield et al., Biochem, 8:4108 (1969) and Johnson, Ann. Rev. Biophvs. Chem., 17:145 (1988). All CD data reported herein have an uncertainty of ±2 to 5% for a 100% helix, [θ]222 =-35,000, and are based on several CD measurements of both peptides SEQ ID NO's:2 and 3 in the presence and absence of metal ions in various TFE/H20 mixtures at -10° to 20° C.
(§3) Both Cu(II) and Zn(II) bound peptide SEQ ID NO:3 with similar affinities and increased the helical content to the same extent.

[3] = Metal ion selectivity and relative affinities by CD analysis; type: binding; details: for metal ion(s) that preferentially stabilize the peptide: summary of Example 3A(2), 3A(3); for metal ions bound, order of affinity: peptide SEQ ID NO:11 at pH 6.0
Source text: Metal ion selectivity is an expected consequence of site specific metal-ligand interaction. The extent of helical induction, to a first approximation, depends on the affinity of metal ion toward the ligands employed, and on the compatibility of metal ion geometry and coordination sphere with the alpha-helical conformation. Thus, although numerous metal ions can induce and stabilize alpha-helix formation, the metal ion having the greatest relative affinity for the ligands employed is preferred and can readily be determined. […]
Peptides, prepared as in Example 1, and admixed with various metal salt solutions as described in Example 2B, were subjected to CD analysis to characterize metal ion selectivity with respect to the position of the metal binding site in the alpha-helical sequence.

[4] = CD titration: dependence of [θ]222 on free metal ion concentration, ZnCl2; type: binding; details: CD analysis, ZnCl2
Source text: as §1, §2, §3

[5] = Heat denaturation assay to measure melting temperatures; type: physicochemical
Description: In order to assess differences in helix stability between the metal ion complexed and uncomplexed forms of peptides Seq. ID No's. 3 and 4, the conformational stability of each peptide in the presence and absence of transition metal ions was determined from heat denaturation studies according to published procedures. Pace et al., In Protein structure, p. 311., IRL Press, (1989). The analysis of the thermal denaturation curves afforded linear ΔG vs. T and van't Hoff plots. […] Complexed peptides Seq. ID No's.
Because tris-bipyridyl-metal ion coordination complexes are chiral and can form either a left-handed or a right-handed helix, two diastereomeric tri-helical structures can possibly be formed. The stereogenic environment of the ensuing parallel tri-helical topology as well as the geometrical constraints imposed by the overall C3 symmetry of the coordination complex was expected, however, to enforce a high degree of diastereoselectivity in the assembly process. The CD spectrum (in the region of 280 and 330 nm) of the peptide in the presence of Ni(II) indicated the formation of one diastereomer having a left-handed helical configuration. Such a behavior is also consistent with the expected left handed supercoil of the tri-helical metallopolypeptide. The analysis of the thermal denaturation curves for the metallopolypeptide in the presence of Ni(II) yielded linear ΔG vs T and van't Hoff plots.

[6] = Aqueous solubility of the peptide; type: physicochemical
Description: The peptide, in the absence of a metal ion, was readily soluble (up to about 2 mg/ml, 1.3 mM) in aqueous media at a pH value of from about 4 to about 9.

[7] = Concentration dependence of ellipticity at 222 nm, monomer-nmer equilibria; type: physicochemical; details: absence of added metal ions; nonlinear regression MINSQ
Description: Data (Δ) were analyzed according to monomer-.eta.mer equilibria using the equation below, where Pn, Pmon, and PT are the self-associated, monomeric, and total concentrations of the peptides, respectively, n is the degree of association, θmon is the ellipticity of the monomer, and θn is the ellipticity of the self-associated form of the peptide. The values of n=1.95, θmon =-10,100, θn =-27,900, and Kdiss =6.4×10^-4 were determined by the nonlinear regression program MINSQ. [formula]

[8] = with CdCl2 (solution 8, 7.3×10^-4 M), water, 4° C.
[9] = Ni(II) or Co(II) ions plus 150 mM NaCl
[10] = absence of any polyvalent metal ion, 7.4 μM in 5 mM sodium borate, pH 6.4, 21° C.
[11] = presence of Ni(II) or Co(II) ions, similar conditions (5 mM sodium borate, pH 6.4, 21° C.)

Compound: CC[C@H](C)[C@H](NC(=O)[C@H](Cc1ccc(O)cc1)NC(=O)[C@@H](NC(=O)[C@H](Cc1c[nH]cn1)NC(=O)CNC(=O)[C@@H]1CCCN1C(=O)[C@H](Cc1c[nH]cn1)NC(=O)[C@@H](NC(=O)[C@H](CO)NC(=O)[C@H](CC(C)C)NC(=O)[C@H](CS)NC(C)=O)C(C)C)[C@@H](C)O)C(=O)N[C@@H](CCC(N)=O)C(=O)N[C@@H](CS)C(N)=O [peptide SEQ ID NO:19] (Ac-CLSVHPGHTYIQC-NH2)
CD spectrum, structure indicated ([1]; absence of added Zn, about 6.0×10^-6 M in Na borate, pH 7.5): random-coiled structure
CD spectrum, structure indicated ([1]; one equivalent of Zn added): beta-turn structure
solubility ([6]; aqueous media, water, absence of a metal ion, pH about 4 to about 9): ≥ 2000 µg/mL and ≥ 1300 µM
decrease of aqueous solubility in the presence of Zn ([6]; pH values greater than about 5.0): about 100 fold

Compound: -Gly-Glu-Leu-Ala-Glu-Gln-Lys-Leu-Glu-Gln-Ala-Leu-Gln-Lys-Leu-Ala ({5‑carboxyl‑2,2'‑bipyridine}-GELAEQKLEQALQKLA) [peptide of Example 4]
alpha-helicity [1, 9]: 80%
θ222 [1, 9]: -25,800 deg·cm2·dmol^-1
alpha-helicity [1, 10]: 30%
θ222 [1, 10]: -10,000 deg·cm^2·dmol^-1
alpha-helicity [1, 11]: greater than 70%
θ222 [1, 11]: -23,400 degcm^2 dmol^-1
θmon, ellipticity of the monomer [7]: -10,100
θn, ellipticity of the self-associated form [7]: -27,900

Compound: Ac--Ala--Ala--Xaa2 --Ala--Leu--Glu--Xaa2 --Gln--Ala--Lys--Ala--Leu--Lys--Glu--Ala--Ala--Gln--Lys--Ala--CONH2 [peptide SEQ ID NO:11, Xaa2 = (NH2)(CO2 H)CH(CH2)3 N(CH2 CO2 H)2]
helicity ([1]; 0° C.): about 100%
θ ([1]; 0° C.): 35,600
helicity ([1]; 20° C.): about 80%
θ ([1]; 20° C.): 29,300
metal ions bound, order of affinity ([3]; CD analysis): Cu(II), Hg(II), Cd(II), Fe(II), Zn(II) and Pb(II) in descending order of affinity
metal ion(s) that preferentially stabilize the peptide [3]: Cu(II)

Compound: Ru(III)-peptide SEQ ID NO:3 complex: exchange-inert macrocyclic cis-[Ru(NH3)4 (L)2 ]^3+ complex of peptide SEQ ID NO:3 through two His residues at i and i+4 (AEAAAKEAAAKHAAAHA; Ru(III) tetraammine macrocyclic complex via two His)
alpha-helicity ([1]; room temperature in water): > 80%
θ222 ([1]; room temperature in water): -28,000
melting temperature (Tm) [5]: 35 °C

Now from value to compound, other results behind:

alpha-helicity ([1]; absence of metal ion (solution 7), water pH 6.65, 4° C.): 54%
dependence of CD spectra on peptide concentration ([1]; presence and absence of metal ions, 0.5-70 μM): independent of the peptide concentration
alpha-helicity [1, 8]: up to 90%
θ222 [1, 8]: -31,500
Kd [2]: 56 µM
metal ion(s) that preferentially stabilize the peptide [3]: Cu(II) and Zu(II)
Compound: CC(=O)N[C@@H](C)C(=O)N[C@@H](CCC(=O)O)C(=O)N[C@@H](C)C(=O)N[C@@H](C)C(=O)N[C@@H](C)C(=O)N[C@@H](CCCCN)C(=O)N[C@@H](CCC(=O)O)C(=O)N[C@@H](C)C(=O)N[C@@H](C)C(=O)N[C@@H](C)C(=O)N[C@@H](CCCCN)C(=O)N[C@@H](CS)C(=O)N[C@@H](C)C(=O)N[C@@H](C)C(=O)N[C@@H](C)C(=O)N[C@@H](Cc1c[nH]cn1)C(=O)N[C@@H](C)C(N)=O [peptide SEQ ID NO:2, Ac--Ala--Glu--Ala--Ala--Ala--Lys--Glu--Ala--Ala--Ala--Lys--Cys--Ala--Ala--Ala--His--Ala--CONH2] (Ac-AEAAAKEAAAKCAAAHA-NH2)
dependence of helicity on added NaF ([1]; NaF up to 250 mM, 5 mM sodium borate): independent of concentration of added NaF up to 250 mM
metal ion selectivity ([3]; CD analysis, CdCl2 vs ZnCl2): Cd(II) selective
effect of Zn(II) on helical content [4]: no effect

CD spectrum, structure indicated ([1]; room temperature in water): random coil structure
metal ion(s) that preferentially stabilize the peptide [3]: Ni(II)
melting temperature (Tm) [5]: -15.5 °C
Compound: CC(=O)N[C@@H](C)C(=O)N[C@@H](CCC(=O)O)C(=O)N[C@@H](C)C(=O)N[C@@H](C)C(=O)N[C@@H](C)C(=O)N[C@@H](CCCCN)C(=O)N[C@@H](Cc1c[nH]cn1)C(=O)N[C@@H](C)C(=O)N[C@@H](C)C(=O)N[C@@H](C)C(=O)N[C@@H](Cc1c[nH]cn1)C(=O)N[C@@H](CCC(=O)O)C(=O)N[C@@H](C)C(=O)N[C@@H](C)C(=O)N[C@@H](C)C(=O)N[C@@H](CCCCN)C(=O)N[C@@H](C)C(N)=O [peptide SEQ ID NO:4, Ac--Ala--Glu--Ala--Ala--Ala--Lys--His--Ala--Ala--Ala--His--Glu--Ala--Ala--Ala--Lys--Ala--CONH2] (Ac-AEAAAKHAAAHEAAAKA-NH2)
metal ions bound, order of affinity ([3]; CD analysis): Ni(II) and Cu(II) predominantly followed by Cd(II) then Zn(II)

binding of Cd(II) or Zn(II) ([3]; CD analysis): no significant binding
metal ion(s) that preferentially stabilize the peptide [3]: Ni(II)
Compound: CC(=O)N[C@@H](C)C(=O)N[C@@H](Cc1c[nH]cn1)C(=O)N[C@@H](C)C(=O)N[C@@H](C)C(=O)N[C@@H](C)C(=O)N[C@@H](Cc1c[nH]cn1)C(=O)N[C@@H](CCC(=O)O)C(=O)N[C@@H](C)C(=O)N[C@@H](C)C(=O)N[C@@H](C)C(=O)N[C@@H](CCCCN)C(=O)N[C@@H](CCC(=O)O)C(=O)N[C@@H](C)C(=O)N[C@@H](C)C(=O)N[C@@H](C)C(=O)N[C@@H](CCCCN)C(=O)N[C@@H](C)C(N)=O [peptide SEQ ID NO:5, Ac--Ala--His--Ala--Ala--Ala--His--Glu--Ala--Ala--Ala--Lys--Glu--Ala--Ala--Ala--Lys--Ala--CONH2] (Ac-AHAAAHEAAAKEAAAKA-NH2)
metal ions bound, order of affinity ([3]; CD analysis): Ni(II) and Cu(II) in descending order of affinity
